Reference: patent US10821115B2, “Compounds that inhibit Mcl-1 protein” (priority 2017, dated 2020)
pIC50: −log10 of the molar value.

Experiments:
[1] = target: recombinant human Mcl-1 (residues 171-327) / Bim interaction (Homo sapiens (Human), UniProt Q07820); test: biochemical; format: binding; conditions: 0.1 nM Mcl-1(171-327), 0.05 nM biotin-Bim (51-76); read-out: Mcl-1 HTRF IC50
[2] = tested on: human multiple myeloma cell line, OPM-2; test: Cell viability assay (OPM-2 10 FBS), CellTiter-Glo; format: cell-based; conditions: Homo sapiens, OPM-2, 16 h, read-out: OPM-2 10% FBS IC50 IP, OPM-2 cells, 10% FBS, 16 h incubation
How it was run: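 3000 cells/well, RPMI 1640 + 10% FBS; serial compound dilutions, 16 h, 37 °C/5% CO2.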

Chain of recombinant human Mcl-1 (residues 171-327) / Bim interaction (Q07820 171-327): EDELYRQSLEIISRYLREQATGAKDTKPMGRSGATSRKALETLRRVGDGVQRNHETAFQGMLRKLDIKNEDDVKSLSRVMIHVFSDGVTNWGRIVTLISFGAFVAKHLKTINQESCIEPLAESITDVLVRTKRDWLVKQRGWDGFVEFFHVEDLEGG

SMILES	pIC50 [1]	pIC50 [2]
COCCN1CCN(C[C@]2(OC)/C=C/C[C@H](C)[C@@H](C)S(=O)(=O)NC(=O)c3ccc4c(c3)N(C[C@@H]3CC[C@H]32)C[C@@]2(CCCc3cc(Cl)ccc32)CO4)CC1=O [Example 55, (1S,3′R,6′R,7′S,8′E,11′S,12′R)-6-chloro-7′-methoxy-7′-((4-(2-methoxyethyl)-3-oxo-1-piperazinyl)methyl)-11′,12′-dimethyl-3,4-dihydro-2H,15′H-spiro[naphthalene-1,22′-[20]oxa[13]thia[1,14]diazatetracyclo [14.7.2.0~3,6~.0~19,24~]pentacosa[8,16,18,24]tetraen]-15′-one 13′,13′-dioxide]	9.79	7.10
CO[C@@]1(CN2CCN3CCOC[C@@H]3C2)/C=C/C[C@H](C)[C@@H](C)S(=O)(=O)NC(=O)c2ccc3c(c2)N(C[C@@H]2CC[C@H]21)C[C@@]1(CCCc2cc(Cl)ccc21)CO3 [Example 56, (1S,3′R,6′R,7′S,8′E,11′S,12′R)-6-chloro-7′-((9aS)-hexahydropyrazino[2,1-c][1,4]oxazin-8(1H)-ylmethyl)-7′-methoxy-11′,12′-dimethyl-3,4-dihydro-2H,15′H-spiro[naphthalene-1,22′-[20]oxa[13]thia[1,14]diazatetracyclo [14.7.2.0~3,6~.0~19,24~]pentacosa[8,16,18,24]tetraen]-15′-one 13′,13′-dioxide]	10.08	7.10
CO[C@@]1(CN2CCN3CCOC[C@H]3C2)/C=C/C[C@H](C)[C@@H](C)S(=O)(=O)NC(=O)c2ccc3c(c2)N(C[C@@H]2CC[C@H]21)C[C@@]1(CCCc2cc(Cl)ccc21)CO3 [Example 57, (1S,3′R,6′R,7′S,8′E,11′S,12′R)-6-chloro-7′-((9aR)-hexahydropyrazino[2,1-c][1,4]oxazin-8(1H)-ylmethyl)-7′-methoxy-11′,12′-dimethyl-3,4-dihydro-2H,15′H-spiro[naphthalene-1,22′-[20]oxa[13]thia[1,14]diazatetracyclo [14.7.2.0~3,6~.0~19,24~]pentacosa[8,16,18,24]tetraen]-15′-one 13′,13′-dioxide]	9.59	7.05
CO[C@]1(CN2CCN3CCOC[C@H]3C2)/C=C/C[C@H](C)[C@@H](C)S(=O)(=O)NC(=O)c2ccc3c(c2)N(C[C@@H]2CC[C@H]21)C[C@@]1(CCCc2cc(Cl)ccc21)CO3 [Example 58, (1S,3′R,6′R,7′R,8′E,11′S,12′R)-6-chloro-7′-((9aR)-hexahydropyrazino[2,1-c][1,4]oxazin-8(1H)-ylmethyl)-7′-methoxy-11′,12′-dimethyl-3,4-dihydro-2H,15′H-spiro[naphthalene-1,22′-[20]oxa[13]thia[1,14]diazatetracyclo [14.7.2.0~3,6~.0~19,24~]pentacosa[8,16,18,24]tetraen]-15′-one 13′,13′-dioxide]	9.14	7.02
CO[C@@]1(CN2CC(C)(N(C)C)C2)/C=C/C[C@H](C)[C@@H](C)S(=O)(=O)NC(=O)c2ccc3c(c2)N(C[C@@H]2CC[C@H]21)C[C@@]1(CCCc2cc(Cl)ccc21)CO3 [Example 59, (1S,3′R,6′R,7′S,8′E,11′S,12′R)-6-chloro-7′-((3-(dimethylamino)-3-methyl-1-azetidinyl)methyl)-7′-methoxy-11′,12′-dimethyl-3,4-dihydro-2H,15′H-spiro[naphthalene-1,22′-[20]oxa[13]thia[1,14]diazatetracyclo [14.7.2.0~3,6~.0~19,24~]pentacosa[8,16,18,24]tetraen]-15′-one 13′,13′-dioxide]	9.94	7.32
CO[C@]1(CN2CC(C)(N(C)C)C2)/C=C/C[C@H](C)[C@@H](C)S(=O)(=O)NC(=O)c2ccc3c(c2)N(C[C@@H]2CC[C@H]21)C[C@@]1(CCCc2cc(Cl)ccc21)CO3 [Example 60, (1S,3′R,6′R,7′R,8′E,11′S,12′R)-6-chloro-7′-((3-(dimethylamino)-3-methyl-1-azetidinyl)methyl)-7′-methoxy-11′,12′-dimethyl-3,4-dihydro-2H,15′H-spiro[naphthalene-1,22′-[20]oxa[13]thia[1,14]diazatetracyclo [14.7.2.0~3,6~.0~19,24~]pentacosa[8,16,18,24]tetraen]-15′-one 13′,13′-dioxide]	9.54	6.89
COCCN1CCN(C[C@@]2(OC)/C=C/C[C@H](C)[C@@H](C)S(=O)(=O)NC(=O)c3ccc4c(c3)N(C[C@@H]3CC[C@H]32)C[C@@]2(CCCc3cc(Cl)ccc32)CO4)CC1 [Example 61, (1S,3′R,6′R,7′R,8′E,11′S,12′R)-6-chloro-7′-methoxy-7′-((4-(2-methoxyethyl)-1-piperazinyl)methyl)-11′,12′-dimethyl-3,4-dihydro-2H,15′H-spiro[naphthalene-1,22′-[20]oxa[13]thia[1,14]diazatetracyclo [14.7.2.0~3,6~.0~19,24~]pentacosa[8,16,18,24]tetraen]-15′-one 13′,13′-dioxide]	10.12	6.91
CO[C@]1(CN2CCN(C)CC2)/C=C/C[C@H](C)[C@@H](C)S(=O)(=O)NC(=O)c2ccc3c(c2)N(C[C@@H]2CC[C@H]21)C[C@@]1(CCCc2cc(Cl)ccc21)CO3 [Example 62]	9.94	6.96
CO[C@@]1(CN2CCN3C(=O)OC[C@@H]3C2)/C=C/C[C@H](C)[C@@H](C)S(=O)(=O)NC(=O)c2ccc3c(c2)N(C[C@@H]2CC[C@H]21)C[C@@]1(CCCc2cc(Cl)ccc21)CO3 [Example 63, (1S,3′R,6′R,7′S,8′E,11′S,12′R)-6-chloro-7′-methoxy-11′,12′-dimethyl-7′-(((8aS)-3-oxotetrahydro[1,3]oxazolo[3,4-a]pyrazin-7(1H)-yl)methyl)-3,4-dihydro-2H,15′H-spiro[naphthalene-1,22′-[20]oxa[13]thia[1,14]diazatetracyclo [14.7.2.0~3,6~.0~19,24~]pentacosa[8,16,18,24]tetraen]-15′-one 13′,13′-dioxide]	9.76	6.24
CO[C@]1(CN2CCN3C(=O)OC[C@@H]3C2)/C=C/C[C@H](C)[C@@H](C)S(=O)(=O)NC(=O)c2ccc3c(c2)N(C[C@@H]2CC[C@H]21)C[C@@]1(CCCc2cc(Cl)ccc21)CO3 [Example 64, (1S,3′R,6′R,7′R,8′E,11′S,12′R)-6-chloro-7′-methoxy-11′,12′-dimethyl-7′-(((8aS)-3-oxotetrahydro[1,3]oxazolo[3,4-a]pyrazin-7(1H)-yl)methyl)-3,4-dihydro-2H,15′H-spiro[naphthalene-1,22′-[20]oxa[13]thia[1,14]diazatetracyclo [14.7.2.0~3,6~.0~19,24~]pentacosa[8,16,18,24]tetraen]-15′-one 13′,13′-dioxide]	9.90	6.70
CNC[C@]1(OC)/C=C/C[C@H](C)[C@@H](C)S(=O)(=O)NC(=O)c2ccc3c(c2)N(C[C@@H]2CC[C@H]21)C[C@@]1(CCCc2cc(Cl)ccc21)CO3 [Example 65, (1S,3′R,6′R,7′S,8′E,11′S,12′R)-6-chloro-7′-methoxy-11′,12′-dimethyl-7′-((methylamino)methyl)-3,4-dihydro-2H,15′H-spiro[naphthalene-1,22′-[20]oxa[13]thia[1,14]diazatetracyclo [14.7.2.0~3,6~.0~19,24~]pentacosa[8,16,18,24]tetraen]-15′-one 13′,13′-dioxide]	9.35	5.82
CO[C@@]1(CN(C)C)/C=C/C[C@H](C)[C@@H](C)S(=O)(=O)NC(=O)c2ccc3c(c2)N(C[C@@H]2CC[C@H]21)C[C@@]1(CCCc2cc(Cl)ccc21)CO3 [Example 66, (1S,3′R,6′R,7′S,8′E,11′S,12′R)-6-chloro-7′-((dimethylamino)methyl)-7′-methoxy-11′,12′-dimethyl-3,4-dihydro-2H,15′H-spiro[naphthalene-1,22′-[20]oxa[13]thia[1,14]diazatetracyclo [14.7.2.0~3,6~.0~19,24~]pentacosa[8,16,18,24]tetraen]-15′-one 13′,13′-dioxide]	9.61	6.50
CO[C@@]1(CN2CC(C)(C#N)C2)/C=C/C[C@H](C)[C@@H](C)S(=O)(=O)NC(=O)c2ccc3c(c2)N(C[C@@H]2CC[C@H]21)C[C@@]1(CCCc2cc(Cl)ccc21)CO3 [Example 67, 1-(((1S,3′R,6′R,7′S,8′E,11′S, 12′R)-6-chloro-7′-methoxy-11′,12′-dimethyl-13′,13′-dioxido-15′-oxo-3,4-dihydro-2H-spiro[naphthalene-1,22′-[20]oxa[13]thia[1,14]diazatetracyclo [14.7.2.0~3,6~.0~19,24~]pentacosa[8,16,18,24]tetraen]-7′-yl)methyl)-3-methyl-3-azetidinecarbonitrile]	9.71	6.83
CO[C@@]1(CN2CCC=C(F)C2)/C=C/C[C@H](C)[C@@H](C)S(=O)(=O)NC(=O)c2ccc3c(c2)N(C[C@@H]2CC[C@H]21)C[C@@]1(CCCc2cc(Cl)ccc21)CO3 [Example 68, (1S,3′R,6′R,7′S,8′E,11′S,12′R)-6-chloro-7′-((5-fluoro-3,6-dihydro-1(2H)-pyridinyl)methyl)-7′-methoxy-11′,12′-dimethyl-3,4-dihydro-2H,15′H-spiro[naphthalene-1,22′-[20]oxa[13]thia[1,14]diazatetracyclo [14.7.2.0~3,6~.0~19,24~]pentacosa[8,16,18,24]tetraen]-15′-one 13′,13′-dioxide]	9.40	5.82
CO[C@]1(CN(C)C)/C=C/C[C@H](C)[C@@H](C)S(=O)(=O)NC(=O)c2ccc3c(c2)N(C[C@@H]2CC[C@H]21)C[C@@]1(CCCc2cc(Cl)ccc21)CO3 [Example 69, (1S,3′R,6′R,7′R,8′E,11′S,12′R)-6-chloro-7′-((dimethylamino)methyl)-7′-methoxy-11′,12′-dimethyl-3,4-dihydro-2H,15′H-spiro[naphthalene-1,22′-[20]oxa[13]thia[1,14]diazatetracyclo [14.7.2.0~3,6~.0~19,24~]pentacosa[8,16,18,24]tetraen]-15′-one 13′,13′-dioxide]	8.42	5.83
